Results on one compound are retold here after US8445539B2, “Alpha-aminoamide derivatives useful in the treatment of psychiatric disorders” (priority 2007, dated 2013).

In this assay the test system is MK-801-induced PPI disruption. As to the kind of experiment: Prepulse inhibition of startle with disruption by MK-801. The following applies: pretreatment vehicle, treatment MK-801 0.2 mg/kg i.p., mean ± SEM. The format is in vivo, Wistar rats. An excerpt: Prepulse inhibition (PPI) is a cross-species phenomenon (i.e., it is present in mammals ranging from mice to humans), yet it is relatively impaired among schizophrenic patients. The PPI procedure is used to assess the subject's ability to “gate” or filter environmental information. In the acoustic (startle model) of sensorimotor gating a weak acoustic stimulus (prepulse) decrease the reflexive flinching response (startle) produced by a second, more intense, stimulus (the pulse). Drugs like dizocilpine (MK-801) or amphetamine disrupt PPI and represent an animal model of schizophrenia; antipsychotic drugs are able to prevent PPI deficit. The test is quite useful to screen potential antipsychotic drugs.
Methods: Male Wistar rats, weighing 200-300 g were used. Apparatus: All startle and PPI testing has been performed in four startle chambers. Each ventilated illuminated and sound proof chamber contained a clear non-restrictive Plexiglas cylinder resting on a platform. A high-frequency loudspeaker inside the chamber produced both a continuous background noise of 70 dB and the various acoustic stimuli. Vibrations of the Plexiglas cylinder caused by the whole-body startle response of the animal were transduced into analogue signals by a piezoelectric unit attached to the platform. These signals were then digitized and stored by a computer. Sixty-five readings were taken at 1-ms intervals starting at stimulus onset, and the average amplitude was used to determine the acoustic startle response. Sound levels is given in dB.
Prepulse inhibition session: After 5 min of habituation (background white noise, 70 dB), two types of acoustic stimuli were used: acoustic stimulus alone (120 dB, 40 ms) or the stimulus proceeded by a prepulse (76, 79, 82 dB, 40 ms) applied 100 ms before the stimulus. During each experimental session 20 trials of each type were presented with interstimulus interval of 20 s. The amplitudes were averaged for each individual animal, separately for both types of trials (stimulus alone or stimulus preceded by the prepulse). The degree of prepulse inhibition was shown as a percentage score (% PPI) calculated as […] a difference between the amplitude of the pulse-alone (P) and the amplitude of the prepulse+pulse trials (PP+P), divided by the amplitude of the pulse-alone trials and multiplied by 100. […] Substances and treatments: MK-801 0.2 mg/kg was dissolved in saline and was given i.p. In each experiment, […] were assigned to receive either compounds of the disclosure or vehicle and were tested in the PPI session using a between-subjects design. The order of drug treatment for the first experiment was test-compound, followed by MK-801; for the second experiment rats received test-compound and then amphetamine. Statistical Analysis: Multiple ANOVA was conducted followed by Dunnett's post hoc test.

With `C[C@]12N[C@H](Cc3ccccc31)c1ccccc12` [MK-801, reference compound], the Percentage of inhibition (% PPI) stood at 9.07 ± 0.81 %. Also, for the setting “startle amplitude”, the Acoustic tone alone stood at 40.50 ± 1.96 and the “Startle amplitude on prepulse + pulse trials” value is reported as 37.00 ± 2.11.
